Laboratory results: US20140296143A1, “Angiotensin-(1-7) As A Chemoprevention Agent” (Wake Forest Innovations, priority 2008, published 2014)

Legend:
cellular levels of cAMP = conditions: 1 μM, in the presence of 1 mM IBMX; n=3; U.S. Pat. No. 7,375,075; cited from earlier work
caspase-8 = test: Caspase-8 activity in A549 cell lysates, fluorometric assay; format: cell-based, human; conditions: A549 cells, 100 nM; maximal at 16 and 24 h
Description: (§1) The specificity of the activity of each caspase substrate was also verified by assays in the presence of specific inhibitors. […] Caspase-3 activity was measured by a fluorometric assay using Ac-DEVD-AFC (Acetylated-Asp-Glu-Val-Asp-7-amino-4-trifluoromethylcoumarin) (SEQ ID NO: 9) as a specific substrate for caspase-3 and Z-DEVD-CHO as a selective caspase-3 inhibitor. Caspase-8 activity was measured by a fluorometric assay using Ac-LETD-AFC (Acetylated-Leu-Glu-Thr-Asp-7-amino-4-trifluoromethylcoumarin) (SEQ ID NO: 10) as a specific substrate and Z-LETD-CHO as a selective caspase-8 inhibitor. The data are presented as relative fluorescence units (RFU).

EA.hy.926 cells = test: Tube formation of endothelial cells in Matrigel; format: cell-based, human; conditions: over the range of 0.5 to 100 nM
Description: These cells are a transformed human endothelial cell line derived from umbilical vein endothelial cells. They retain their endothelial phenotype and were previously used to study angiogenesis.
After a 16 h incubation period to allow tube formation, cultures were photographed and branch points were counted, to quantify tube formation.

COX-1 mRNA = COX-1 mRNA in A549 cells; format: cell-based, human; conditions: quiescent A549 cells, 100 nM, 2, 4, or 8 h
Description: For reverse-transcriptase real-time PCR, RNA was isolated from cells or tissue, using the TRIzol reagent (GIBCO Invitrogen Corp., Carlsbad, Calif.), as directed by the manufacturer. The RNA concentration and integrity were assessed using an Agilent 2100 Bioanalyzer with an RNA 6000 nano LabChip (Agilent Technologies, Palo Alto, Calif.). Approximately 1 μg of total RNA was reverse transcribed using avian myeloblastosis virus reverse transcriptase (RT) in a 20 μL mixture containing deoxyribonucleotides, random hexamers and RNase inhibitor in RT buffer. Heating the RT reaction product at 95° C. terminated the reaction. For real-time polymerase chain reaction (PCR), 2 μL of the resultant cDNA was added to TaqMan Universal PCR Master Mix (Applied Biosystems, Foster City, Calif.) with a gene-specific primer/probe set (Applied Biosystems, Foster City, Calif.) and amplification was performed on an ABI 7000 Sequence Detection System. The mixtures were heated at 50° C. for 2 min, at 95° C. for 10 min followed by 40 cycles at 95° C. for 15 sec and 60° C. for 1 min. […] The results were quantified as Ct values, where Ct is defined as the threshold cycle of PCR at which amplified product is first detected, and expressed as the ratio of target/control (Relative Gene Expression).

caspase-3 = test: Caspase-3 activity in A549 cell lysates, fluorometric assay; format: cell-based, human; conditions: A549 cells, 100 nM; maximal at 16 and 24 h
Description: as §1

[1] = system: ZR-75-1 breast cancer cell line tumors; test: ZR-75-1 breast cancer xenograft in athymic mice, intravenous infusion; format: in vivo, mouse; conditions: 24 μg/kg/hr infusion, 28 days; saline tumors doubled
Description: (§2) Male or female athymic mice (15-20 g, 2-4 weeks of age, Charles River Laboratory, Wilmington, Mass.) were housed in cages with HEPA-filtered air (12-hour light/dark cycle) and ad libitum access to food and autoclaved water. All procedures complied with the policies of the Wake Forest University Animal Care and Use Committee. Mice were inoculated subcutaneously in the lower left flank with approximately 1.9×10^6 A549 lung cancer cells or ZR-75-1 breast cancer cells suspended in 200 μL of cold Matrigel (BD Biosciences, Bedford, Mass.). […] The mice were anesthetized by inhalation with 1.5% isoflurane. […] The minipumps also contained heparin (25 U/mL) to maintain patency of the catheter. On day 28 of the infusion, the animals were anesthetized with halothane and sacrificed by decapitation. Alternatively, the mice received daily subcutaneous injections of Ang-(1-7) in saline or saline alone.
Tumor volumes were measured by caliper two times per week and calculated using the formula for a semiellipsoid. After 40 days, the mice had tumors approximately 175 mm^3 in size and were randomized for treatment.

SK-LU-1 cells = test: Gene array hybridization (Human Cancer 1.2 Atlas cDNA Expression Array) in SK-LU-1 cells; format: cell-based; conditions: SK-LU-1, 1% serum, 100 nM
Description: Cells were incubated for 2 or 8 h, and total RNA was isolated using the Atlas Pure Total RNA Labeling System (Clontech Laboratories, Inc). The RNA concentration was quantified by UV spectroscopy and any degradation was assessed by ethidium bromide staining intensity of 28S and 18S ribosomal RNA following agarose gel electrophoresis. RNA isolated from seven different cell passages was pooled prior to gene array analysis to account for individual variability in gene regulation. Radiolabeled cDNA, prepared from the pooled RNAs using the Atlas system, was incubated with DNase to degrade any residual DNA and then hybridized to the Human Cancer 1.2 Atlas cDNA Expression Array (Clonetech Laboratories, Inc). This gene array set contains 1,176 characterized human cDNAs on positively-charged nylon membranes.

[2] = system: A549 human lung tumor xenografts; test: A549 human lung tumor xenograft in athymic mice, subcutaneous injection; format: in vivo, mouse
Description: For reverse-transcriptase real-time PCR, RNA was isolated from cells or tissue, using the TRIzol reagent (GIBCO Invitrogen Corp., Carlsbad, Calif.), as directed by the manufacturer. The RNA concentration and integrity were assessed using an Agilent 2100 Bioanalyzer with an RNA 6000 nano LabChip (Agilent Technologies, Palo Alto, Calif.). Approximately 1 μg of total RNA was reverse transcribed using avian myeloblastosis virus reverse transcriptase (RT) in a 20 μL mixture containing deoxyribonucleotides, random hexamers and RNase inhibitor in RT buffer. Heating the RT reaction product at 95° C. terminated the reaction. For real-time polymerase chain reaction (PCR), 2 μL of the resultant cDNA was added to TaqMan Universal PCR Master Mix (Applied Biosystems, Foster City, Calif.) with a gene-specific primer/probe set (Applied Biosystems, Foster City, Calif.) and amplification was performed on an ABI 7000 Sequence Detection System. The mixtures were heated at 50° C. for 2 min, at 95° C. for 10 min followed by 40 cycles at 95° C. for 15 sec and 60° C. for 1 min. All reactions were performed in triplicate and 18S ribosomal RNA, amplified using the TaqMan Ribosomal RNA Control Kit (Applied Biosystems), served as an internal control. The results were quantified as Ct values, where Ct is defined as the threshold cycle of PCR at which amplified product is first detected, and expressed as the ratio of target/control (Relative Gene Expression).
as §2
The mice were injected daily, for 5 days, followed by a 2 day rest period, and the injections were continued for 7 cycles. Tumor size was measured every 3 days during the treatment period, using a caliper, and tumor volume was calculated using the formula for a semi-ellipsoid. The tumors continued to grow in the mice treated with saline (FIG. 33). […] It should be noted that a number of the saline control mice were sacrificed after 1 month due to excessive tumor size. Only a single control mouse remained in the study by the 40th day, while the Ang-(1-7)-treated mice thrived.

[3] = system: A549 human lung cancer cells; test: Hoechst 33342 staining for morphological features of apoptosis; format: cell-based; conditions: 100 nM, 4 h
Text: In one experiment, A549 human lung cancer cells were stained with Hoechst 33342 to visualize the morphological changes associated with apoptosis.

[4] = 1000 μg/kg/day, radioimmunoassay
[5] = subcutaneous 1000 μg/kg/day, versus saline

CC[C@H](C)[C@H](NC(=O)[C@H](Cc1ccc(O)cc1)NC(=O)[C@@H](NC(=O)[C@H](CCCNC(=N)N)NC(=O)[C@@H](N)CC(=O)O)C(C)C)C(=O)N[C@@H](Cc1c[nH]cn1)C(=O)N1CCC[C@H]1C(=O)O [Ang-(1-7), Asp-Arg-Val-Tyr-Ile-His-Pro]
cellular levels of cAMP (cellular levels of cAMP): 131.9±9.7 % of basal
time-dependent increase in caspase-8 activity (caspase-8): about 2 fold
inhibition of tube formation (EA.hy.926 cells): dose-dependent inhibition
COX-1 mRNA (COX-1 mRNA): no change
time-dependent increase in caspase-3 activity (caspase-3): about 2 fold
reduction in tumor volume compared to tumor size prior to treatment [1]: ~40%
expression of MEK5, ERK1, p21/K-ras 2B (SK-LU-1 cells): reduced
expression of p16^INK4a, menin, BAD, BAK, apoptotic protease activating factor 1 (SK-LU-1 cells): upregulated
prostacyclin synthase ([2]; 1000 μg/kg/day): not altered
PGE2 in tumors [2, 4]: reduced
PGI2 in tumors [2, 4]: increased
tumor growth ([2]; subcutaneous 1000 μg/kg/day, 5 days on/2 days rest, 7 cycles): significantly reduced
COX-2 in tumors [2, 5]: marked down-regulation
down-regulation in VEGF mRNA in tumor tissue [2, 5]: about 40%
reduction in prostaglandin E2 synthase (PGES) mRNA in tumors [2, 5]: greater than 50%
morphological changes (Hoechst 33342) [3]: typical morphological changes associated with stimulation of apoptosis
